Experimental data published in patent US9682993B2, “Anticancer compounds” (ST. JUDE CHILDREN'S RESEARCH HOSPITAL, priority 2012, dated 2017).
Where two headings read alike, the source gives them in different places.

How the values were obtained:
JeKo1 = assay: In vitro cytotoxicity analysis, JeKo1; format: cell-based; details: Homo sapiens, JeKo-1
Description: (§1) The A549 lung cancer, WiDr colorectal cancer, MCF-7 breast cancer, PC-3 prostate cancer, and OVCAR-3 ovarian cancer cell lines were purchased from the American Type Culture Collection (ATCC, Manassas, Va.) and were maintained in growth media as recommended by the ATCC. The JeKo-1 and JVM-2 mantle cell lymphoma cell lines were purchased from the DSMZ (Brunswick, Germany) and were maintained in growth media as recommended by the vendor. The pediatric rhabdomyosarcoma Rh18 cell line was provided y Dr. P. Houghton (Ohio State University—Nationwide Children's Hospital, Columbus, Ohio) and were maintained in growth media as recommended by Dr. Houghton. All cell culture media were supplemented with L-glutamine and penicillin/streptomycin. All cells were grown under standard culture conditions in CO2 incubators, at 37° C., with 5% CO2, and 100% relative humidity.
(§2) Cell viabilities were determined by measuring the cleavage of (sodium 3′-[1-(phenylaminocarbonyl)-3,4-tetrazolium]-bis(4-methoxy-6-nitro)benzene sulfonic acid hydrate) (XTT) to a water-soluble orange formazan by mitochondrial dehydrogenase, following the manufacturer's instructions (Roche Applied Science, Indianapolis, Ind.). Briefly, cell lines were seeded at various cell densities depending on the cell type. The adherent cell lines were allowed to adhere overnight before compound addition, whereas the suspension cell lines were seeded the day of compound addition. Stock concentrations of the compounds were made in DMSO, diluted in culture media and subsequently added to the plates at various final concentrations, then incubated for 72 hours. After the incubation period, the XTT labeling reagent, containing the electron-coupling reagent, was added to each well and incubated for 4 hours. The absorbance of each well was then read at 490 nm with a reference wavelength of 690 nm using a VersaMax™ microplate reader (Sunnyvale, Calif.). Data are expressed as the percentage of growth compared to vehicle-treated cells, as calculated from absorbance and corrected for background absorbance.
(§3) Alternatively, cell lines were seeded in 100 μL cell culture medium in 96-well plates. Depending on the cell proliferation rate, cells were seeded at 4,000 to 6,000 cells/well. Suspension cell cultures were initiated with 20,000 cells/well. The cells were incubated overnight at 37° C., and then the drug treatments were started by adding 50 μL medium containing the corresponding drug dilution and DMSO. The final concentration of DMSO onto the cells was 0.5% v/v in all wells. The cells viability was determined using the CellTiter-Glo Luminescent Cell Viability Assay (Promega, Madison, Wis.). The CellTiter-Glo reagent was prepared according to the manufacturer's instructions, and then 50 μL reagent was added to each well for 1 h at rt. The luminescence was measured on an Envision Multilabel Plate Reader (PerkinElmer, Waltham, Mass.). The IC50 values were calculated from the dose-response curve analysis with GraphPad Prism 6.01 (GraphPad Software, La Jolla, Calif.) using the nonlinear regression model 4 Parameter Logistic. Nine concentrations were generated by 1:2 serial dilutions for each IC50 assay. Each drug concentration was evaluated in triplicate or quadruplicate.

PC3 = assay: In vitro cytotoxicity analysis, PC3; format: cell-based; details: Homo sapiens
Description: as §1, §2, §3

SK-MEL-2 = assay: Drug combination assay, SK-MEL-2; format: cell-based; details: for Interaction Type: listed drug combined with compound 19, Ineffective = drug IC50 much higher than 1 μM
Protocol: (§4) Preliminary cytotoxic screenings for each drug used in drug combination assays were performed to determine their cytotoxic dose range. […] Eight concentrations were established by 1:3 serial dilutions of the single drugs and their combinations with the splicing modulators. All drug concentrations were evaluated in triplicate in 96-well cell culture plates. Assays of individual drugs and drug combinations were run on the same tissue culture plate. Cell viability was determined using the CellTiter-Glo reagent.
(§5) Luminescence data obtained from the cell viability determinations were formatted per the requirements of the analytical software (viability data range: >0 and <1). The formatted data were analyzed with the software CalcuSyn 2.1 (Biosoft, Cambridge, UK), which provides quantitative CI values for the drug interaction analyses (see ranges in Supplementary Table S2).

HeLa = assay: Drug combination assay, HeLa; format: cell-based
Protocol: as §4, with “reagent. Drug interactions, in terms of synergism, additive effect, or antagonism, were based on the drugs' Combination Index (CI) (Chou et al., Adv. Enzyme Regul. 1984, 22, 27).” for “reagent.”
as §5, with “S2). […] Therefore, in these two cases the drug interaction was evaluated by comparing the IC50 value of Sudemycin with that of the IC50 values resulting from the serial dilutions of the splicing modulator combined with a constant dose of the non-toxic drug.” for “S2).”

cell lines investigated = assay: Drug combination assays, cell line not stated; format: cell-based
Protocol: as §4, §5

[1] = Mouse plasma stability (HPLC); format: in vitro ADME; details: mouse plasma at 37° C.
[2] = Solubility in phosphate buffered saline (HPLC); format: physicochemical; details: for solubility: aqueous buffer, read-out: Buffer Soluble
[3] = test system: cytotoxicity or splicing modulation; assay: Rapid onset of cytotoxicity or splicing modulation; format: cell-based; details: maximum cytotoxicity or splicing modulation within 5 hours of drug treatment
Protocol: The cell were seeded in of 100 μl of medium into 96-well plates (HeLa at 4×10^4 cell/well; SK_MEL_2 at 6×10^4 cell/well), they were allowed to attach overnight, and then treatments started by adding 50 μl of medium containing Sudemycin D6 to produce a final concentration of 1 μM and DMSO to 0.5% v/v final into the experimental well. Continuous drug treatments were run in the same plate, using concentrations of 0, 62.5, 125, 250, 500 & 1000 nM final. DMSO was added into all wells, including non-treated wells to 0.5% v/v final concentration. For wells where the drug was withdrawn, the medium was carefully aspirated after 1, 2, 3 and 4 hours after the addition of the drug, the cells were washed once with PBS and then 150 μl of fresh cell culture medium containing 0.5% v/v DMSO was added into all washed out wells. After 72 hours of the addition of drug, the cell viability was determined using CellTiter-Glo luminescent cell viability assay (Promega, Madison, Wis.), and Sudemycin D6 cytotoxicity was calculated as the percentage of cell proliferation inhibition against the control treatment DMSO.

[4] = test system: MDM2 alternative splicing in Rh18 cells; assay: In vitro alternative splicing assay (MDM2, RT-PCR); format: cell-based; details: Rh18 cells, 8 h exposure; Table II
Protocol: Briefly, following an 8 h exposure of exponentially growing cells to drug, total RNA was isolated using TRIzol reagent (Invitrogen, Carlsbad, Calif.). Total RNA (1 μg) was used to convert the mRNA to cDNA by using random primers, Oligo(dT)16 and Omniscript Reverse Transcription Kit (Qiagen, Germantown, Md.). PCR analyses were performed using specific oligonucleotides (see Table I) and standard amplification protocols. PCR products were separated by agarose gel electrophoresis, visualized by ethidium bromide staining on an UV transilluminator, and recorded. PCR band sizes were calculated by comparing them to the standard EZ Load 100-bp PCR Molecular Ruler (BioRad Laboratories, Hercules, Calif.).

Sk-N-AS = assay: Drug combination assay, Sk-N-AS neuroblastoma; format: cell-based; details: Sk-N-AS; inhibitor + compound 19
Protocol: as §4, §5

PC-3 = assay: Drug combination assay, PC-3; format: cell-based; details: inhibitor + compound 19
Protocol: as §4, with “reagent. Drug interactions, in terms of synergism, additive effect, or antagonism, were based on the drugs' Combination Index (CI) (Chou et al., Adv. Enzyme Regul. 1984, 22, 27).” for “reagent.”
as §5, with “S2). […] Therefore, in these two cases the drug interaction was evaluated by comparing the IC50 value of Sudemycin with that of the IC50 values resulting from the serial dilutions of the splicing modulator combined with a constant dose of the non-toxic drug.” for “S2).”

WiDr = assay: Drug combination assay, WiDr; format: cell-based; details: inhibitor + compound 19
Protocol: as §4, with “reagent. Drug interactions, in terms of synergism, additive effect, or antagonism, were based on the drugs' Combination Index (CI) (Chou et al., Adv. Enzyme Regul. 1984, 22, 27).” for “reagent.”
as §5, with “S2). […] Therefore, in these two cases the drug interaction was evaluated by comparing the IC50 value of Sudemycin with that of the IC50 values resulting from the serial dilutions of the splicing modulator combined with a constant dose of the non-toxic drug.” for “S2).”

[5] = PC-3, Table III, read-out: PC3 IC50

Row | SMILES | IC50 (JeKo1; Table III) | Plasma Stability [1] | IC50 (JeKo1; Table II) | Rapid Onset [3] | MDM2 Splicing Effects [4] | also measured
1 | CCN(CC)C(=O)O[C@@H](C)/C=C\C(=O)N[C@H]1CO[C@@H](C/C=C(C)/C=C/[C@@H]2C[C@]3(CO3)CC(C)(C)O2)OC1 | > 1 µM |  |  |  |  | IC50 (PC3; PC-3, read-out: PC3 IC50): > 10 µM
2 | O=C(O)CCCCCCCCCCCNC(=O)NC12CC3CC(CC(C3)C1)C2 [AUDA] |  |  |  |  |  | Interaction Type (SK-MEL-2): Synergism (0.3-0.7); cytotoxicity alone (HeLa; HeLa cells, 15 μM): not cytotoxic; drug interaction with compound 19 (panel of 23 drugs) (cell lines investigated): synergy; cytotoxic effect of drug alone (cell lines investigated; single drug in combination assays): Neither AUDA nor NCND alone produced a cytotoxic effect
3 | CCCCNC(=O)O[C@@H](C)/C=C\C(=O)N[C@H]1CO[C@@H](C/C=C(C)/C=C/[C@@H]2C[C@]3(CO3)CC(C)(C)O2)OC1 | > 1 µM |  |  |  |  | IC50 (PC3; [5]): > 10 µM
4 | CNC(=O)O[C@@H](C)/C=C\C(=O)N[C@H]1CO[C@@H](C/C=C(C)/C=C/[C@@H]2C[C@]3(CO3)CC(C)(C)O2)OC1 | 0.9 µM |  |  |  |  | IC50 (PC3; PC-3, read-out: PC3 IC50): > 10 µM
5 | CC(/C=C/C1C[C@]2(CO2)CC(C)(C)O1)=C\C[C@H]1OC[C@@H](NC(=O)/C=C\[C@H](C)OC(=O)N(C)C)CO1 (stereo partly drawn) |  | Yes (“Yes” indicates mouse plasma stability is >5 hours in mouse plasma at 37 °C as determined by HPLC.) | 0.3 µM | No | Yes | solubility [2]: > 10 µM
6 | CC(/C=C/[C@@H]1C[C@]2(CO2)CC(C)(C)O1)=C\C[C@H]1OC[C@@H](NC(=O)/C=C\[C@H](C)OC(N)=O)CO1 | 1.9 µM |  |  |  |  | IC50 (PC3; [5]): > 10 µM
7 | C=CCN(/C=C1/C(=O)O[C@H](COC)[C@@]2(C)C1=C(O)C(=O)C1=C2[C@H](OC(C)=O)C[C@]2(C)C(=O)CC[C@@H]12)CC=C [PX-866] |  |  |  |  |  | CI of 19 + inhibitor (Sk-N-AS): 0.65; CI of 19 + inhibitor (PC-3): 0.67; CI in SK-MEL-2 with compound 19 (SK-MEL-2; Combination Index at ED50, CalcuSyn 2.1, listed drug + compound 19): 0.57; CI of 19 + inhibitor (SK-MEL-2; SK-MEL-2, inhibitor + compound 19): 0.57; Interaction Type (SK-MEL-2): Synergism (0.3-0.7); CI of 19 + inhibitor (HeLa; HeLa, inhibitor + compound 19): 0.49; drug interaction with compound 20 (cell lines investigated): demonstrated synergy; CI of 19 + inhibitor (WiDr): 0.33
8 | COCCNC(=O)O[C@@H](C)/C=C\C(=O)N[C@H]1CO[C@@H](C/C=C(C)/C=C/[C@@H]2C[C@]3(CO3)CC(C)(C)O2)OC1 | > 1 µM |  |  |  |  | IC50 (PC3; [5]): > 10 µM
9 | CC(/C=C/[C@@H]1C[C@]2(CO2)CC(C)(C)O1)=C\C[C@H]1CC[C@@H](NC(=O)/C=C\[C@H](C)OC(=O)C(C)C)CC1 |  | No | 0.047 µM | Yes (“Yes” indicates maximum cytotoxicity or splicing modulation is seen within 5 hours of drug treatment.) | Yes | Buffer Soluble [2]: No
10 | CC(=O)O[C@@H](C)/C=C\C(=O)N[C@H]1CC[C@@H](C/C=C(C)/C=C/[C@@H]2C[C@]3(CO3)CC(C)(C)O2)CC1 |  | No | 0.1 µM | Yes (“Yes” indicates maximum cytotoxicity or splicing modulation is seen within 5 hours of drug treatment.) | Yes | Buffer Soluble [2]: No
11 | CC(/C=C/[C@@H]1C[C@]2(CO2)CC(C)(C)O1)=C\C[C@H]1OC[C@@H](NC(=O)/C=C\[C@H](C)OC(=O)C(C)C)CO1 |  | No | 0.22 µM | No | Yes | solubility [2]: > 10 µM
